From patent publication EP1779900A1, “Cosmetic or dermatological composition for prevention of light-induced aging” (Apotheker Walter Bouhon GmbH, priority 2005, dated 2007)

Tested on: interstitiellen Kollagenase 1 (Matrixmetalloproteinase-1, MMP1)
Assay: Inhibition of UV-A-induced MMP1 mRNA expression in human dermal fibroblasts (real-time PCR, in vitro)
Type: cell-based
Conditions: 20 J/cm^2 UV-A, versus control
Text: Es wird die Hemmung der UV-A-induzierten Genexpression am Beispiel der interstitiellen Kollagenase 1 (Matrixmetalloproteinase-1, MMP1) in humanen dermalen Fibroblasten untersucht. Die UV-A-induzierte Expression von MMP1 mRNS wird mittels Echtzeit PCR (Polymerase-Kettenreaktion) aus Zellen, die 24 Stunden nach der Bestrahlung mit 20 J/cm^2 geerntet worden sind, im Vergleich zu unbehandelten zeitgleichen Kontrollen bestimmt.
Da Serum Vitamin-A enthält, werden die verwendeten Zellkulturen für 24 Stunden serum-depriviert. Zur Kontrolle wird die Genexpression an unbehandelten Zellen ohne und mit UV-A-Bestrahlung ermittelt. In einer Konzentrationsreihe von 0,1 bis 30 µM an zugesetztem Retinol wird jeweils die Genexpression der unbestrahlten und der mit UV-A bestrahlten Zellkulturen bestimmt.
Wiederum wird eine Kontrollmessung der Genexpression an unbehandelten Zellkulturen mit und ohne UV-A-Bestrahlung durchgeführt. Den Zellkulturen wird in einer Konzentrationsreihe zwischen 5 und 100µM Generol® R, ein käuflich erwerbbares Produkt der Cognis France SA zugefügt. Generol® R ist eine Mischung aus verschiedenen Phytosterolen und wird aus Raps gewonnen. Generol® R besteht zu 40 bis 60% aus Sitosterol, 25 bis 40% Campesterol, 7 bis 18% Brassicasterol und einem geringem Anteil an Stigmasterol. Zum Erreichen der beschriebenen Konzentrationsreihe wurde Generol® R entsprechend verdünnt. […]

SMILES	Hemmung der MMP1-Expression (Vitamin-A 10-25 µM (series 0,1-30 µM Retinol), serum-deprived 24 h, cells harvested 24 h after irradiation) [%]	Hemmung der MMP1 mRNS-Expression (Vitamin-E-Sukzinat 10-75 µM, 24 h after irradiation) [%]
CC1=C(/C=C/C(C)=C/C=C/C(C)=C/CO)C(C)(C)CCC1 [Vitamin-A, Retinol]	≤ 82	
Cc1c(C)c2c(c(C)c1OC(=O)CCC(=O)O)CCC(C)(CCCC(C)CCCC(C)CCCC(C)C)O2 (centres unmarked) [Vitamin-E-Sukzinat]		≤ 75
